Read-outs that look alike come from different tables or passages of the source. Marks after values point to notes of the source that are not given here.
Assays:
[1] = Protein binding to human plasma; type: in vitro ADME
T. cruzi = experiment: Acute T. cruzi infection model (bioluminescent T. cruzi); type: in vivo, Trypanosoma cruzi; settings: 50 mg/kg orally twice a day for five days
Procedure: FIG. 5 illustrates efficacy of a MetRS inhibitor in acute T. cruzi infection model. (A) Study protocol. Compounds were dosed orally with 50 mg/kg twice a day for five days, and the images were taken of day 6, 13, and 24. (B) Images and (C) graphs of the […] results.
Several compounds of the disclosure were also evaluated in vivo in C. parvum infection model and in acute T. cruzi infection model. Immunosuppressed mice (NOD SCID Gamma) with Cryptosporidium infection were treated for 5 days with test compounds. Cryptosporidium oocysts were quantified in stool by PCR. […] In FIG. 4, gamma-IFN knockout mice were used and, similarly, treated for 5 days with the test compound 2093. […] With respect to the T. cruzi, an efficacy model was employed in which the infection was monitored using bioluminescent T. cruz. With vehicle treatment, all mice died by day 14 post-infection.

[2] = Data from Drugbank; cited from earlier work

**Q.** With `Fc1ccc2nc(NCCCN[C@@H]3CCNc4c(Cl)cc(Cl)cc43)[nH]c2n1` [Compound 1717, (4R)-6,8-dichloro—N-[3-({5-fluoro-3H-imidazo[4,5-b]pyridin-2-yl}amino)propyl]-1,2,3,4-tetrahydroquinolin-4-amine, reference compound] as the compound, how does the “% binding to human plasma” value [1] read?
**A.** 95.4%

**Q.** Which tissue parasites (T. cruzi) does the source give for `CCn1c(Cc2ccc(OC)cc2Cl)cn(Cc2nc3nc(Cl)ccc3[nH]2)c1=O` [Compound 2093, 1-({5-chloro-1H-imidazo[4,5-b]pyridin-2-yl}methyl)-4-[(2-chloro-4-methoxyphenyl)methyl]-3-ethyl-2,3-dihydro-1H-imidazol-2-one] here?
**A.** dramatic suppression of tissue parasites

**Q.** And the survival (T. cruzi; vehicle mice all died by day 14)?
**A.** 100%

**Q.** For `CC(=O)NC[C@H]1CN(c2ccc(N3CCOCC3)c(F)c2)C(=O)O1` [LNZ, linezolid], which “% binding to human plasma” value [2] is on record?
**A.** 31* %

Source: US11584744B2 (UNIVERSITY OF WASHINGTON, priority 2017, dated 2023)
